The text below walks through data of PMC5908784, “Extracellular loops 2 and 3 of the calcitonin receptor selectively modify agonist binding and efficacy” (Biochemical Pharmacology, 2018).

One assay concerns the target T1, hCTR I300A (Homo sapiens, UniProt P30988, I300A).
T1 construct: c-Myc (N); expressed in transfected cells
T1 sequence (P30988 25-474 I300A): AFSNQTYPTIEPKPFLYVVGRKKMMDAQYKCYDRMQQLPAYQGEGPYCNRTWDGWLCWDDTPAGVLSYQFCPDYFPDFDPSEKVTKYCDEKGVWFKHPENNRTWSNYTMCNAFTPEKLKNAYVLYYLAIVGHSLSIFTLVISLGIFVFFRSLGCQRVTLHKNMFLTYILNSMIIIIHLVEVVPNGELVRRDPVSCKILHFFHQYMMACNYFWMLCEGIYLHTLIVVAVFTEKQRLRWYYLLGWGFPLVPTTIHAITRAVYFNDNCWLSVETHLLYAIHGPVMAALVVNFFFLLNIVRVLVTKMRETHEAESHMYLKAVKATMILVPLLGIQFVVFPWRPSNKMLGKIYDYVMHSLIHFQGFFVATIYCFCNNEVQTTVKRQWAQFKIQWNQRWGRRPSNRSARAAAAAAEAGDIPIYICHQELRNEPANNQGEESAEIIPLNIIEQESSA
Nature of the assay: IP1 accumulation. It counts as cell-based. The conditions noted are these: IP1 maximal response, mean ± S.E.M., SEM. In a few lines: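 Cells bearing the mutant calcitonin receptor were plated overnight, then stimulated with increasing ligand concentrations for 60 min in the presence of LiCl. Endogenous IP1 was read by HTRF after lysis.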

The target in another assay is T2, hCTR R362A (Homo sapiens, UniProt P30988, R362A).
T2 construct: expressed in transfected cells
T2 sequence (P30988 25-474 R362A): T1 sequence (P30988 25-474 I300A) with A276I, R338A
Nature of the assay: Homologous whole cell competition binding. Particulars: homologous competition of 125I-sCT(8-32), whole cells, mean ± S.E.M., SEM. The procedure, abridged:
(§1)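 Homologous competition, intact cells, 4 °C overnight; tracer ^125I-sCT(8-32) 25–100 pM (two concs) vs cold sCT(8-32); NSB 1 μM cold peptide; γ counter; 3-param logistic IC50 → Cheng-Prusoff pKi; Bmax also estimated.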

For a further assay, the target named is T3, hCTR K366A (Homo sapiens, UniProt P30988, K366A).
T3 construct: c-Myc (N); expressed in transfected cells
T3 sequence (P30988 25-474 K366A): T1 sequence (P30988 25-474 I300A) with A276I, K342A
Nature of the assay: Homologous whole cell competition binding. Particulars: homologous competition of 125I-sCT(8-32), whole cells, mean ± S.E.M., SEM. In a few lines:
as §1

Another assay addresses T4, hCTR WT (Homo sapiens, UniProt P30988).
T4 construct: expressed in transfected cells
T4 sequence (P30988 25-474): T1 sequence (P30988 25-474 I300A) with A276I
Description: Homologous whole cell competition binding. Particulars: homologous competition of 125I-sCT(8-32), whole cells, mean ± S.E.M., SEM. The procedure, abridged:
as §1

Residue numbers refer to the chain shown, from its start. Where no end group is shown, it is not given here.

As usually defined, the Emax is the maximal effect, on the per cent scale that the assay sets. For the molecule `CC[C@H](C)[C@H](NC(=O)[C@H](C)NC(=O)[C@@H](NC(=O)[C@H](CCC(N)=O)NC(=O)[C@@H]1CCCN1C(=O)[C@H](Cc1ccccc1)NC(=O)[C@@H](NC(=O)[C@H](Cc1c[nH]cn1)NC(=O)[C@H](Cc1ccccc1)NC(=O)[C@H](CCCCN)NC(=O)[C@H](CC(N)=O)NC(=O)[C@H](Cc1ccccc1)NC(=O)[C@H](CC(=O)O)NC(=O)[C@H](CCC(N)=O)NC(=O)[C@@H](NC(=O)[C@H](Cc1ccc(O)cc1)NC(=O)[C@@H](NC(=O)CNC(=O)[C@H](CC(C)C)NC(=O)[C@H](CCSC)NC(=O)[C@@H]1CSSC[C@H](N)C(=O)NCC(=O)N[C@@H](CC(N)=O)C(=O)N[C@@H](CC(C)C)C(=O)N[C@@H](CO)C(=O)N[C@@H]([C@@H](C)O)C(=O)N1)[C@@H](C)O)[C@@H](C)O)[C@@H](C)O)[C@@H](C)O)C(=O)NCC(=O)N[C@H](C(=O)NCC(=O)N[C@@H](C)C(=O)N1CCC[C@H]1C(N)=O)C(C)C` [hCT], at hCTR I300A, the Emax worked out at 44 ± 4%.
A word on the Ki: it is a measure of affinity in units of concentration, obtained from inhibition or displacement. High values mean lower affinity, low ones higher affinity. For “VLGKLSQELHKLQTYPRTNTGSGTP-NH2 [sCT(8-32)]”, the Ki is 0.219 nM on hCTR R362A, 0.195 nM at hCTR K366A and 0.2 nM on hCTR WT.
